Laboratory results from PubChem BioAssay AID2060507 (Molecular Pharmacology Branch, DTP, NCI, 2025).
pIC50: −log10 of the molar value.

Tested on: 519858-162-T-J1-PDC complex spheroid viability
Assay: Anticancer human tumor 519858-162-T-J1-PDC patient-derived colon adenocarcinoma cell line growth inhibition [GQUAD]
Conditions: for pIC50: curve of first compound; for viability, T/C: stronger effect = lower value
Summary of the method: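 Tumor cells were grown as complex spheroids with HUVEC endothelial cells and mesenchymal stem cells as stroma. G-quadruplex stabilizers were combined with targeted agents over half-log dilutions from near the clinical Cmax, or from 10 microM.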

[1] = second compound 0.0316 µM, first compound 0.0316 µM
[2] = second compound 0.0316 µM, first compound 0.1 µM
[3] = second compound 0.0316 µM, first compound 0.316 µM
[4] = second compound 0.0316 µM, first compound 1 µM
[5] = second compound 0.0316 µM, first compound 3.16 µM
[6] = second compound 0.0316 µM, first compound 10 µM
[7] = second compound 0.1 µM, first compound 0.0316 µM
[8] = second compound 0.1 µM, first compound 0.1 µM
[9] = second compound 0.1 µM, first compound 0.316 µM
[10] = second compound 0.1 µM, first compound 1 µM
[11] = second compound 0.1 µM, first compound 3.16 µM
[12] = second compound 0.1 µM, first compound 10 µM
[13] = second compound 0.316 µM, first compound 0.0316 µM
[14] = second compound 0.316 µM, first compound 0.1 µM
[15] = second compound 0.316 µM, first compound 0.316 µM
[16] = second compound 0.316 µM, first compound 1 µM
[17] = second compound 0.316 µM, first compound 3.16 µM
[18] = second compound 0.316 µM, first compound 10 µM
[19] = second compound 1 µM, first compound 0.0316 µM
[20] = second compound 1 µM, first compound 0.1 µM
[21] = second compound 1 µM, first compound 0.316 µM
[22] = second compound 1 µM, first compound 1 µM
[23] = second compound 1 µM, first compound 3.16 µM
[24] = second compound 1 µM, first compound 10 µM
[25] = second compound 3.16 µM, first compound 0.0316 µM
[26] = second compound 3.16 µM, first compound 0.1 µM
[27] = second compound 3.16 µM, first compound 0.316 µM
[28] = second compound 3.16 µM, first compound 1 µM
[29] = second compound 3.16 µM, first compound 3.16 µM
[30] = second compound 3.16 µM, first compound 10 µM
[31] = second compound 10 µM, first compound 0.0316 µM
[32] = second compound 10 µM, first compound 0.1 µM
[33] = second compound 10 µM, first compound 0.316 µM
[34] = second compound 10 µM, first compound 1 µM
[35] = second compound 10 µM, first compound 3.16 µM
[36] = second compound 10 µM, first compound 10 µM
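Note: spheroids exposed to compounds for 7 days.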
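Throughout, for viability, T/C: 100% = DMSO vehicle control viability.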

`C#Cc1c(F)ccc2cc(O)cc(-c3ncc4c(N5CC6CCC(C5)N6)nc(OCC56CCCN5CC(F)C6)nc4c3F)c12` (stereo unspecified) + Cc1cnc(CNC(=O)c2c(=O)c3ccc(N4CCCN(C)CC4)nc3n3c2sc2ccccc23)cn1 gave a pIC50 (second compound 0.0316 µM) of less than 5.00, a pIC50 (second compound 0.1 µM) of less than 5.00 and a pIC50 (second compound 0.316 µM) of 5.02. It also gave a pIC50 (second compound 1 µM) of 5.44, a pIC50 (second compound 3.16 µM) of 5.90 and a pIC50 (second compound 10 µM) greater than 7.50. It also gave a viability, T/C [1] of 71.2%, a viability, T/C [2] of 81.3% and a viability, T/C [3] of 83.4%. The viability, T/C [4] was 104%, the viability, T/C [5] was 78.2% and the viability, T/C [6] was 73.9%. It also gave a viability, T/C [7] of 78.8%, a viability, T/C [8] of 89% and a viability, T/C [9] of 61.9%. It also gave a viability, T/C [10] of 84.2%, a viability, T/C [11] of 70.7% and a viability, T/C [12] of 92%. For the same molecule, the viability, T/C [13] was 65%, the viability, T/C [14] was 88% and the viability, T/C [15] was 73.3%. It also gave a viability, T/C [16] of 66.6%, a viability, T/C [17] of 83.1% and a viability, T/C [18] of 49.2%. The viability, T/C [19] was 70.1%, the viability, T/C [20] was 56.7% and the viability, T/C [21] was 63.5%. It also gave a viability, T/C [22] of 55.9%, a viability, T/C [23] of 48.8% and a viability, T/C [24] of 46.4%. The viability, T/C [25] was 46.6%, the viability, T/C [26] was 63.5% and the viability, T/C [27] was 53.4%. The viability, T/C [28] was 53.1%, the viability, T/C [29] was 34.5% and the viability, T/C [30] was 42%. It also gave a viability, T/C [31] of 32.5%, a viability, T/C [32] of 55.2% and a viability, T/C [33] of 48.4%. The viability, T/C [34] was 53.4%, the viability, T/C [35] was 52.4% and the viability, T/C [36] was 41.7%.

`C=CCn1c(=O)c2cnc(Nc3ccc(N4CCN(C)CC4)cc3)nc2n1-c1cccc(C(C)(C)O)n1` + Cc1cnc(CNC(=O)c2c(=O)c3ccc(N4CCCN(C)CC4)nc3n3c2sc2ccccc23)cn1 was tested, and the pIC50 (second compound 0.0316 µM) was less than 5.00, the pIC50 (second compound 0.1 µM) was less than 5.00 and the pIC50 (second compound 0.316 µM) was less than 5.00. It also gave a pIC50 (second compound 1 µM) greater than 7.50, a pIC50 (second compound 3.16 µM) greater than 7.50 and a pIC50 (second compound 10 µM) greater than 7.50. It also gave a viability, T/C [1] of 95.6%, a viability, T/C [2] of 82.6% and a viability, T/C [3] of 94.3%. It also gave a viability, T/C [4] of 66.1%, a viability, T/C [5] of 70.4% and a viability, T/C [6] of 76%. For the same molecule, the viability, T/C [7] was 81.8%, the viability, T/C [8] was 96.9% and the viability, T/C [9] was 58.5%. For the same molecule, the viability, T/C [10] was 92%, the viability, T/C [11] was 66.8% and the viability, T/C [12] was 69.7%. The viability, T/C [13] was 51.6%, the viability, T/C [14] was 73% and the viability, T/C [15] was 49.8%. For the same molecule, the viability, T/C [16] was 64.2%, the viability, T/C [17] was 75.8% and the viability, T/C [18] was 64.3%. The viability, T/C [19] was 60%, the viability, T/C [20] was 48.2% and the viability, T/C [21] was 38.8%. The viability, T/C [22] was 42.4%, the viability, T/C [23] was 73.6% and the viability, T/C [24] was 68%. It also gave a viability, T/C [25] of 46.3%, a viability, T/C [26] of 51.4% and a viability, T/C [27] of 53.8%. It also gave a viability, T/C [28] of 45.5%, a viability, T/C [29] of 49.5% and a viability, T/C [30] of 53.4%. For the same molecule, the viability, T/C [31] was 40%, the viability, T/C [32] was 55.3% and the viability, T/C [33] was 51.6%. For the same molecule, the viability, T/C [34] was 40.1%, the viability, T/C [35] was 32.3% and the viability, T/C [36] was 39.4%.

With `CC(=O)O[C@H]1C(=O)[C@@]2(C)[C@H]([C@H](OC(=O)c3ccccc3)[C@]3(O)C[C@H](OC(=O)[C@H](O)[C@@H](NC(=O)c4ccccc4)c4ccccc4)C(C)=C1C3(C)C)[C@]1(OC(C)=O)CO[C@@H]1C[C@@H]2O` + Cc1cnc(CNC(=O)c2c(=O)c3ccc(N4CCCN(C)CC4)nc3n3c2sc2ccccc23)cn1 the pIC50 (second compound 0.0316 µM) was less than 5.00, the pIC50 (second compound 0.1 µM) was less than 5.00 and the pIC50 (second compound 0.316 µM) was less than 5.00. It also gave a pIC50 (second compound 1 µM) of less than 5.00, a pIC50 (second compound 3.16 µM) of less than 5.00 and a pIC50 (second compound 10 µM) greater than 7.50. The viability, T/C [1] was 78.7%, the viability, T/C [2] was 93.7% and the viability, T/C [3] was 72.2%. For the same molecule, the viability, T/C [4] was 75.3%, the viability, T/C [5] was 92.5% and the viability, T/C [6] was 93.3%. It also gave a viability, T/C [7] of 104%, a viability, T/C [8] of 90.9% and a viability, T/C [9] of 74.8%. The viability, T/C [10] was 91.5%, the viability, T/C [11] was 103% and the viability, T/C [12] was 67.8%. The viability, T/C [13] was 65.2%, the viability, T/C [14] was 57.1% and the viability, T/C [15] was 60.6%. The viability, T/C [16] was 68.9%, the viability, T/C [17] was 70.9% and the viability, T/C [18] was 73.4%. For the same molecule, the viability, T/C [19] was 55.7%, the viability, T/C [20] was 70.9% and the viability, T/C [21] was 48.5%. For the same molecule, the viability, T/C [22] was 58.6%, the viability, T/C [23] was 67.1% and the viability, T/C [24] was 56.1%. The viability, T/C [25] was 59.7%, the viability, T/C [26] was 67.7% and the viability, T/C [27] was 45.9%. It also gave a viability, T/C [28] of 66.8%, a viability, T/C [29] of 51.4% and a viability, T/C [30] of 59.9%. For the same molecule, the viability, T/C [31] was 26.7%, the viability, T/C [32] was 44.4% and the viability, T/C [33] was 38.7%. It also gave a viability, T/C [34] of 58.5%, a viability, T/C [35] of 48.9% and a viability, T/C [36] of 69.6%.
